The values below are quoted from earlier work in PMC10377753, “Pharmacokinetic and pharmacodynamic properties of polymyxin B in Escherichia coli and Klebsiella pneumoniae murine infection models” (Journal of Antimicrobial Chemotherapy, 2023).

This data set deals with plasma proteins. The following applies: mouse, spiked pooled plasma, ultracentrifugation; cited from earlier work. An excerpt: Protein binding of polymyxin B is known to be high. However, a difference was found between the current study (unbound fraction 20%) compared with previous studies (8.6% for polymyxin B,[8] 8.4% for colistin[5]), which affects the PTA. In the present study, ultrafiltration was used for determining the unbound fraction, whilst ultracentrifugation was used in the other studies. With the ultrafiltration method, correction for the NSB to the ultrafiltration membranes was needed. In addition, differences in mouse plasma used for determination of polymyxin B protein binding may (partly) explain the ...

With colistin, the Unbound fraction was 8.4%.
